According to PubChem BioAssay AID1963973 (Molecular Pharmacology Branch, DTP, NCI, 2024):

System: 883617-216-R-J1-PDC tumor spheroids, viability
Assay: Anticancer human tumor 883617-216-R-J1-PDC patient-derived bladder carcinoma cell line growth inhibition [PI3K]
Details: spheroids with HUVEC and MSC; for IC50: curve of first compound; for viability, T/C: stronger effect = lower value; active = viability on the fitted dose curve at most 10% of control; inactive = the rest
In short: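 Three cell types, namely tumor cells, endothelial cells and mesenchymal stem cells, formed each spheroid. Combinations with four PI3K inhibitors were screened at clinically achievable concentrations decreasing by half-log, and spheroid viability was recorded.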

[1] = second compound 0.0316 µM, first compound 0.0316 µM
[2] = second compound 0.0316 µM, first compound 0.1 µM
[3] = second compound 0.0316 µM, first compound 0.316 µM
[4] = second compound 0.0316 µM, first compound 1 µM
[5] = second compound 0.0316 µM, first compound 3.16 µM
[6] = second compound 0.0316 µM, first compound 10 µM
[7] = second compound 0.1 µM, first compound 0.0316 µM
[8] = second compound 0.1 µM, first compound 0.1 µM
[9] = second compound 0.1 µM, first compound 0.316 µM
[10] = second compound 0.1 µM, first compound 1 µM
[11] = second compound 0.1 µM, first compound 3.16 µM
[12] = second compound 0.1 µM, first compound 10 µM
[13] = second compound 0.316 µM, first compound 0.0316 µM
[14] = second compound 0.316 µM, first compound 0.1 µM
[15] = second compound 0.316 µM, first compound 0.316 µM
[16] = second compound 0.316 µM, first compound 1 µM
[17] = second compound 0.316 µM, first compound 3.16 µM
[18] = second compound 0.316 µM, first compound 10 µM
[19] = second compound 1 µM, first compound 0.0316 µM
[20] = second compound 1 µM, first compound 0.1 µM
[21] = second compound 1 µM, first compound 0.316 µM
[22] = second compound 1 µM, first compound 1 µM
[23] = second compound 1 µM, first compound 3.16 µM
[24] = second compound 1 µM, first compound 10 µM
[25] = second compound 3.16 µM, first compound 0.0316 µM
[26] = second compound 3.16 µM, first compound 0.1 µM
[27] = second compound 3.16 µM, first compound 0.316 µM
[28] = second compound 3.16 µM, first compound 1 µM
[29] = second compound 3.16 µM, first compound 3.16 µM
[30] = second compound 3.16 µM, first compound 10 µM
[31] = second compound 10 µM, first compound 0.0316 µM
[32] = second compound 10 µM, first compound 0.1 µM
[33] = second compound 10 µM, first compound 0.316 µM
[34] = second compound 10 µM, first compound 1 µM
[35] = second compound 10 µM, first compound 3.16 µM
[36] = second compound 10 µM, first compound 10 µM
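Note: spheroids exposed to agents for 7 days before the viability read.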

C#Cc1c(F)ccc2cc(O)cc(-c3ncc4c(N5CC6CCC(C5)N6)nc(OCC56CCCN5CC(F)C6)nc4c3F)c12 (stereo not given) + Cc1nc(NC(=O)N2CCCC2C(N)=O)sc1-c1ccnc(C(C)(C)C(F)(F)F)c1
6560 nM: IC50 (second compound 0.1 µM)
< 31.6 nM: IC50 (second compound 0.316 µM) | IC50 (second compound 1 µM) | IC50 (second compound 3.16 µM) | IC50 (second compound 10 µM)
inactive: viability, T/C [1] 81.1% | viability, T/C [2] 89.1% | viability, T/C [3] 77.6% | viability, T/C [4] 80.9% | viability, T/C [5] 79.7% | viability, T/C [6] 57.5% | viability, T/C [7] 69.8% | viability, T/C [8] 66.5% | viability, T/C [9] 76.8% | viability, T/C [10] 74.2% | viability, T/C [11] 63.1% | viability, T/C [12] 41.1% | viability, T/C [13] 53.8% | viability, T/C [14] 47.3% | viability, T/C [15] 45.5% | viability, T/C [16] 46.5% | viability, T/C [17] 43.7% | viability, T/C [18] 24.7% | viability, T/C [19] 28.2% | viability, T/C [20] 28.3% | viability, T/C [21] 26.8% | viability, T/C [22] 29% | viability, T/C [23] 24.7% | viability, T/C [24] 19.9% | viability, T/C [25] 15.2% | viability, T/C [26] 13.1% | viability, T/C [27] 12.6% | viability, T/C [28] 14.5% | viability, T/C [29] 15.3% | viability, T/C [30] 8.2%
> 10000 nM: IC50 (second compound 0.0316 µM)
active: viability, T/C [31] 7.88% | viability, T/C [32] 7.4% | viability, T/C [33] 5.56% | viability, T/C [34] 7.83% | viability, T/C [35] 5.24% | viability, T/C [36] 0.61%

C=CC(=O)N1CCN(c2nc(=O)n(-c3c(C)ccnc3C(C)C)c3nc(-c4c(O)cccc4F)c(F)cc23)C(C)C1 (stereo not given) + Cc1nc(NC(=O)N2CCCC2C(N)=O)sc1-c1ccnc(C(C)(C)C(F)(F)F)c1
< 31.6 nM: IC50 (second compound 0.0316 µM) | IC50 (second compound 0.1 µM) | IC50 (second compound 0.316 µM) | IC50 (second compound 1 µM) | IC50 (second compound 3.16 µM) | IC50 (second compound 10 µM)
inactive: viability, T/C [1] 56.5% | viability, T/C [2] 45.7% | viability, T/C [3] 44.1% | viability, T/C [4] 51.8% | viability, T/C [5] 70.4% | viability, T/C [6] 60.9% | viability, T/C [7] 37.3% | viability, T/C [8] 35.9% | viability, T/C [9] 40.3% | viability, T/C [10] 34.9% | viability, T/C [11] 52.9% | viability, T/C [12] 46.2% | viability, T/C [13] 32.5% | viability, T/C [14] 22.4% | viability, T/C [15] 25.6% | viability, T/C [16] 27.5% | viability, T/C [17] 34.6% | viability, T/C [18] 35% | viability, T/C [19] 14.7% | viability, T/C [20] 12.8% | viability, T/C [21] 13.9% | viability, T/C [22] 17.1% | viability, T/C [23] 26.2% | viability, T/C [24] 20.5% | viability, T/C [25] 10.3%
active: viability, T/C [26] 6.71% | viability, T/C [27] 6.68% | viability, T/C [28] 9.84% | viability, T/C [29] 12.8% | viability, T/C [30] 11.2% | viability, T/C [31] 3.61% | viability, T/C [32] 2.75% | viability, T/C [33] 3.18% | viability, T/C [34] 4.91% | viability, T/C [35] 7.96% | viability, T/C [36] 6.43%

CC(Cn1ccc(-c2ccc(C#N)c(Cl)c2)n1)NC(=O)c1cc(C(C)O)[nH]n1 (stereo not given) + Cc1nc(NC(=O)N2CCCC2C(N)=O)sc1-c1ccnc(C(C)(C)C(F)(F)F)c1
inactive: viability, T/C [1] 86.2% | viability, T/C [2] 77.4% | viability, T/C [3] 85.3% | viability, T/C [4] 101% | viability, T/C [5] 100% | viability, T/C [6] 93.8% | viability, T/C [7] 73.8% | viability, T/C [8] 60.6% | viability, T/C [9] 67.9% | viability, T/C [10] 78.9% | viability, T/C [11] 70% | viability, T/C [12] 67.4% | viability, T/C [13] 45.4% | viability, T/C [14] 40.1% | viability, T/C [15] 50.6% | viability, T/C [16] 42.5% | viability, T/C [17] 55% | viability, T/C [18] 55.9% | viability, T/C [19] 30.8% | viability, T/C [20] 31% | viability, T/C [21] 28.8% | viability, T/C [22] 24.7% | viability, T/C [23] 28.8% | viability, T/C [24] 28% | viability, T/C [25] 13% | viability, T/C [26] 15.4% | viability, T/C [27] 15.5% | viability, T/C [28] 15.3% | viability, T/C [29] 16.2% | viability, T/C [30] 15.3%
< 31.6 nM: IC50 (second compound 0.316 µM) | IC50 (second compound 1 µM) | IC50 (second compound 3.16 µM) | IC50 (second compound 10 µM)
active: viability, T/C [31] 6.67% | viability, T/C [32] 7.22% | viability, T/C [33] 6.48% | viability, T/C [34] 6.6% | viability, T/C [35] 9.29% | viability, T/C [36] 7.26%
> 10000 nM: IC50 (second compound 0.0316 µM) | IC50 (second compound 0.1 µM)

Cn1ncc(Cl)c1-c1cc(C(=O)NC(CN)Cc2cccc(F)c2)sc1Cl (stereo not given) + Cc1nc(NC(=O)N2CCCC2C(N)=O)sc1-c1ccnc(C(C)(C)C(F)(F)F)c1
249 nM: IC50 (second compound 0.0316 µM)
active: viability, T/C [6] 5.02% | viability, T/C [12] 4.24% | viability, T/C [17] 8.47% | viability, T/C [18] 2.6% | viability, T/C [23] 7.58% | viability, T/C [24] 2.44% | viability, T/C [28] 8.34% | viability, T/C [29] 5.31% | viability, T/C [30] 1.74% | viability, T/C [31] 9.56% | viability, T/C [32] 7.78% | viability, T/C [33] 5.02% | viability, T/C [34] 5.6% | viability, T/C [35] 3.31% | viability, T/C [36] 0.93%
< 31.6 nM: IC50 (second compound 0.316 µM) | IC50 (second compound 1 µM) | IC50 (second compound 3.16 µM) | IC50 (second compound 10 µM)
inactive: viability, T/C [1] 88.3% | viability, T/C [2] 67.7% | viability, T/C [3] 45.5% | viability, T/C [4] 26.1% | viability, T/C [5] 11.8% | viability, T/C [7] 75% | viability, T/C [8] 67.1% | viability, T/C [9] 42.7% | viability, T/C [10] 25% | viability, T/C [11] 11.1% | viability, T/C [13] 42.6% | viability, T/C [14] 41.6% | viability, T/C [15] 34.4% | viability, T/C [16] 18.6% | viability, T/C [19] 29.2% | viability, T/C [20] 30.8% | viability, T/C [21] 20.7% | viability, T/C [22] 13.9% | viability, T/C [25] 15.4% | viability, T/C [26] 13.4% | viability, T/C [27] 12.4%
236 nM: IC50 (second compound 0.1 µM)

Cn1nccc1Nc1nccc(-c2ccn(C(CO)c3ccc(Cl)c(F)c3)c(=O)c2)n1 (stereo not given) + Cc1nc(NC(=O)N2CCCC2C(N)=O)sc1-c1ccnc(C(C)(C)C(F)(F)F)c1
inactive: viability, T/C [1] 82.5% | viability, T/C [2] 79.8% | viability, T/C [3] 68.7% | viability, T/C [4] 68.3% | viability, T/C [5] 68% | viability, T/C [6] 46.3% | viability, T/C [7] 69.7% | viability, T/C [8] 72.5% | viability, T/C [9] 66.7% | viability, T/C [10] 56% | viability, T/C [11] 48.7% | viability, T/C [12] 33.2% | viability, T/C [13] 47.3% | viability, T/C [14] 44.1% | viability, T/C [15] 43.9% | viability, T/C [16] 34.5% | viability, T/C [17] 30.8% | viability, T/C [18] 24.4% | viability, T/C [19] 26.2% | viability, T/C [20] 25.7% | viability, T/C [21] 26.3% | viability, T/C [22] 20.5% | viability, T/C [23] 15.1% | viability, T/C [24] 12.8% | viability, T/C [25] 13.3% | viability, T/C [26] 12.2% | viability, T/C [27] 9.5%
9040 nM: IC50 (second compound 0.0316 µM)
2550 nM: IC50 (second compound 0.1 µM)
< 31.6 nM: IC50 (second compound 0.316 µM) | IC50 (second compound 1 µM) | IC50 (second compound 3.16 µM) | IC50 (second compound 10 µM)
active: viability, T/C [28] 9.97% | viability, T/C [29] 8.33% | viability, T/C [30] 7.21% | viability, T/C [31] 5.74% | viability, T/C [32] 5.78% | viability, T/C [33] 4.59% | viability, T/C [34] 4.62% | viability, T/C [35] 3.21% | viability, T/C [36] 1.26%
